Measured values from ChEMBL document CHEMBL1122276, “6-Chloro-2,3,4,5-tetrahydro-3-methyl-1H-3-benzazepine: a potent and selective antagonist of alpha 2-adrenoceptors” (J Med Chem, 1983).

Tests used:
Canis familiaris = organism: Canis familiaris; experiment: Effective concentration of 100% release of [3H]norepinephrine from electrically stimulated dog splenic arteries; format: functional, Canis lupus familiaris
Oryctolagus cuniculus = organism: Oryctolagus cuniculus; experiment: Ability to block the norepinephrine constrictor response in the rabbit ear artery in a competitive fashion; format: functional
Cavia porcellus [1] = organism: Cavia porcellus; experiment: Dissociation constant (KB) for competitive inhibition of BHR 920 induced depression of neurotransmission in isolated guinea pig atrium; format: functional; settings: Cardiac atrium
Cavia porcellus [2] = organism: Cavia porcellus; experiment: Concentration-related inhibition of response to sympathetic nerve stimulation in isolated guinea pig atrium mediated by alpha-2 receptors; format: functional; settings: Cardiac atrium

| EC50 (Cavia porcellus [2]) | Structure (SMILES) | EC100 (Canis familiaris) | Kb (Oryctolagus cuniculus) | Kb (Cavia porcellus [1]) |
| --- | --- | --- | --- | --- |
|  | CN1CCc2cccc(Cl)c2CC1.Cl | 210 nM | 900 nM | 17 nM |
| 100 nM | C=CCN1CCc2nc(N)sc2CC1 [TALIPEXOLE] |  |  |  |
